Measurements taken from patent publication US6682927B2, “Methods and apparatus for the high through-put detection of binding interactions in vivo” (priority 1998, dated 2004).

Tests used:
[1] = system: RBL-cells that express C1A-CaMKII and GFP-CaMKIIα; assay: In vivo protein-protein binding assay with inducible C1A translocation domain, evanescent wave excitation; type: cell-based, Rat; details: PDBu 1 μM, n=3
Source text: FIG. 10. Measuring protein-protein binding interactions of cytosolic proteins using an evanescent wave excitation. (A) Schematic representation of the in vivo binding assay. Binding between Proteins X and Y can be measured by conjugating Protein X with GFP and Protein Y with an inducible plasma membrane targeting domain. […] The C1A-domain from PKCγ was used as an inducible translocation domain. […] Typical translocation traces are shown.
Cloning of GFP-Fusion Constructs and Electroporation. […]
Measuring Protein-Protein Binding Interactions with High Signal-to-Background by Evanescent Wave Excitation. Protein-protein binding interactions have been measured previously by using a dual protein fusion strategy in which a protein Y was conjugated with an inducible plasma membrane translocation domain and a protein X with a GFP-tag (FIG. 5A, ref. 40). By inducing plasma membrane translocation of the non-fluorescent protein Y, the increase in plasma membrane fluorescence from the fluorescent protein X becomes a measure for the fraction of protein X that is bound to protein Y (since it is carried along with protein Y to the plasma membrane). […]
Evanescent wave excitation was now used in combination with the same assay. […] RNA transfection was used for quantitative expression of the two constructs (Teruel, et al. (1999) J. Neuroscience Methods 93: 37-48). […]

[2] = system: cells expressing the plasma membrane localized GFP construct; assay: Control: fluorescence of cells expressing plasma membrane localized GFP; type: cell-based; details: ionomycin and phorbol ester added together
Protocol: FIG. 6. Evanescent wave excitation of fluorescent cytosolic and membrane proteins in adherent cells. (A) Schematic view of the microscope setup (see Materials and Methods section for description). (B) Fluorescent images of RBL cells that express cytosolic GFP (left; representative of 6 experiments) or plasma membrane targeted GFP (right, n=3). A myristoylation/palmitoylation sequence was fused to the N-terminal end of GFP for membrane targeting.
Fluorescent images were recorded from RBL-cells that had similar levels of expressed cytosolic or plasma membrane localized GFP constructs. The targeting of GFP to the plasma membrane utilized a fusion of the 12 amino acid palmitoylation/myristoylation plasma membrane targeting sequence from Lyn to the N-terminus of GFP (Teruel, et al. (1999) J. Neuroscience Methods 93: 37-48). The fluorescence intensity of cells with expressed cytosolic GFP (FIG. 6B) was typically 3 to 10-fold lower than the intensity of cells with expressed plasma membrane targeted GFP (FIG. 6C).
Analysis of Receptor Triggered Translocation of PKCγ-GFP in Thin Cells. […] The changes in fluorescence intensity could be followed in a series of several hundred images. […] Similar receptor-triggered fluorescence intensity oscillations could be observed in RBL cells (FIG. 7D) and 3T3 fibroblasts (data not shown).

[3] = system: hippocampal astrocytes expressing PKCγ-GFP; assay: Plasma membrane translocation of PKCγ-GFP by evanescent wave excitation; type: cell-based; details: glutamate 100 μM, ionomycin 2 μM
Protocol: FIG. 7. Plasma membrane translocation of PKCγ measured in hippocampal astrocytes by evanescent wave excitation. (A) Time series of fluorescent images of cultured hippocampal astrocytes expressing PKCγ-GFP stimulated with glutamate (100 μM; n=47). […] (B) The same experiment as in (A) but with calcium ionophore added (2 μM ionomycin; n=8). (Bars=10 μm in (A) and (B)). (C) Time course of PKCγ-GFP translocation measured as a fractional increase in fluorescence intensity and triggered by glutamate addition (100 μM, left) to a single astrocyte (left panel; n=47). (D) Similar periodic intensity changes in an RBL stably expressing PAF receptors following the addition of 100 nM PAF. Ionomycin was added at the end of each experiment (2 μM).
Cell Culturing. Rat basophilic leukemia 2H3 (RBL) cells were grown and plated as described by Oancea, et al. ((1997) J. Cell Biol. 140, 485-498) and Oancea, E. & Meyer, T. ((1998) Cell 95, 307-318). […]
Evanescent Wave Excitation and Fluorescence Microscopy (also termed Total Internal Reflection Fluorescence Microscopy or TIRFM). […] For glass coverslips, total internal reflection occurs for angles above 61° [θI,c=arcsin(n2/n1), calculated for a refractive index n1=1.52 for glass and n2=1.33 for water]. […] The space constant of the exponential decay I(z)=I(0)exp(−z/d) at a given angle can be calculated as described by Axelrod ((1981) J. Cell. Biol. 89, 141-145). […]

[4] = system: RBL cells expressing PKCγ-YFP; assay: E-SCAM measurement of plasma membrane translocation of PKCγ-YFP; type: cell-based, Rat; details: ionomycin-induced PKCγ translocation in RBL cells; data not shown
Source text: FIG. 11. E-SCAM measurement of plasma membrane translocation events in more than a thousand cells. (A) Schematic view of the Evanescent wave Single Cell Array Macroscope (E-SCAM) in which the excitation light is directly coupled into the coverslip. (B) Low magnification images of RBL, cells expressing PKCγ-YFP before (left) and after stimulation with calcium ionophore (right). […] (Bar=1 mm). (C and D) Statistical analysis of receptor-triggered fluorescence intensity changes measured in RBL-cells expressing PKCγ-YFP after stimulation by cross-linking of their FcεRI receptors with the antigen DNP-BSA. (C) Typical time courses. (D) Histogram of the maximum amplitude of fluorescence intensity changes that was measured in each of more than 1000 cells visible in the field of view.
Construction of an Evanescent wave Single Cell Array Macroscope (E-SCAM). A wide-field microscope (macroscope) was designed in similar fashion to the higher magnification system described above. Two Rodenstock 100 mm Heligon lenses were mounted below the coverslip in opposite directions to obtain a combined objective and ocular with 1:1 magnification. The second lens projected the sample image onto a 5 MHz Micromax camera made commercially available from Roper Scientific of Trenton, N.J. This lens combination has high spatial and chromatic accuracy as well as a numerical aperture of NA˜0.3 (F/1.6). […]

## CCCC(=O)O[C@@H]1[C@@H](C)[C@@]2(O)[C@@H](C=C(CO)C[C@]3(O)C(=O)C(C)=C[C@@H]23)[C@@H]2C(C)(C)[C@]12OC(=O)CCC [PDBu]
[1]
  plasma membrane fluorescence change, C1A-CaMKIIα and GFP-CaMKIIα: marked increase in plasma membrane fluorescence
[2]
  change in fluorescence intensity of plasma membrane localized GFP (control): no significant change in fluorescence intensity

## N[C@@H](CCC(=O)O)C(=O)O [glutamate]
[3]
  change in fluorescence intensity (PKCγ-GFP translocation): marked increase in fluorescence intensity

## C[C@H](CCC(=O)O)C[C@H](C)C[C@H](C)C(=O)/C=C(\O)[C@H](C)C[C@H](C)C/C=C/[C@@H](C)[C@@H](O)[C@@H](C)[C@@H](O)C[C@@H]1CC[C@@](C)([C@H]2CC[C@@](C)([C@@H](C)O)O2)O1 [ionomycin]
[4]
  cell compliance of induced translocation: 100%
[2]
  change in fluorescence intensity of plasma membrane localized GFP (control): no significant change in fluorescence intensity
